pEC50: −log10 of the molar value. Entries after “also recorded” stand apart in the source; their conditions may differ. Read-outs that look alike come from different tables or passages of the source.
Legend:
LXRβ [1] = molecular target: T1, LXRβ (Homo sapiens, UniProt P55055); assay: Corepressor (NCOR2, SMRT2) binding CRT, LXRβ
T1 sequence (P55055 222-460 limits assumed): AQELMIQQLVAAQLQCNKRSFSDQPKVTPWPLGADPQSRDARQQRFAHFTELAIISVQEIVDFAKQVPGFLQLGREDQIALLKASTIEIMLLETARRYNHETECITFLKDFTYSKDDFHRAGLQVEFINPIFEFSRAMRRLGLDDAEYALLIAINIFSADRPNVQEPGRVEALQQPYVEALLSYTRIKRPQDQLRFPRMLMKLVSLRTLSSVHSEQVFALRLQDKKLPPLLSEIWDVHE

[2] = test system: SREBF1, FAS, and SCD1 in HepG2 cells; assay: RT-PCR of lipogenic genes in HepG2 cells; format: cell-based, human; conditions: HepG2, 24 hours
Procedure: Owing to the anomalous response in the reporter assay, we measured lipogenic genes, SREBF1, FAS, and SCD1 by RT-PCR in HepG2 cells in response to treatment with the biphenyl sulfones (Figs 5G–I).
HepG2 cells were seeded in 12-well plates and treated with compounds for 24 hours. Following treatment, cells were washed once with PBS and then lysed in 350 μL of RLT buffer (Qiagen). Lysates were immediately frozen at −80 °C until RNA extraction. Total RNA was extracted using RNeasy Plus Mini columns (Qiagen) according to the manufacturer’s instructions. RNA concentration and purity were assessed using the A260/A280 ratio measured on a Synergy Neo2 plate reader (BioTek). For cDNA synthesis, 2 μg of total RNA was reverse transcribed using SuperScript III reverse transcriptase (Invitrogen), oligo(dT)12–18 primers, and dNTP mix, following the manufacturer’s protocol. Quantitative PCR was performed using TaqMan Gene Expression Master Mix (Invitrogen) with 2 μL of cDNA and gene-specific TaqMan probes in a 20 μL reaction volume per well. The following TaqMan assays were used: ABCA1: Hs01059101_m1, SREBF1: Hs01088691_m1, SCD: Hs01682761_m1, FASN: Hs01005622_m1, and HPRT1 (endogenous control): Hs02800695_m1. qPCR was performed on a StepOne Real-Time PCR System (Applied Biosystems), and gene expression was quantified using the ΔΔCt method.

LXRα [3] = molecular target: T2, LXRα (Homo sapiens, UniProt Q13133); conditions: for Effect on 24HC agonism at LXRα: in the presence of 24HC (3 μM); for SRC-1 recruitment to LXRα, efficacy relative to T0: ligand alone, normalized to T0 (100%)
T2 sequence (Q13133 209-447 limits assumed): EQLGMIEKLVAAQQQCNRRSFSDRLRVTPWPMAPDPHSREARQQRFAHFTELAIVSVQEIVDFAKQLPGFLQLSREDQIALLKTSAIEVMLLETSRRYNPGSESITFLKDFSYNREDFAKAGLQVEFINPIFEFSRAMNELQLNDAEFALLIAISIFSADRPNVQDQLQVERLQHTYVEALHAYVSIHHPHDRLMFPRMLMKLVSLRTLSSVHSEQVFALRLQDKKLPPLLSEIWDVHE

[4] = test system: ABCA1-promoter luciferase in CCF-STTG1 cells; assay: ABCA1-luc reporter in CCF-STTG1 astrocytoma cells; format: cell-based, human; conditions: for ABCA1-luc response: 24 hr incubation, normalized to T0 (100%)
Source text: Astrocytoma CCF-STTG1 cells, stably transfected with an ABCA1-promoter linked to a luciferase response element provide a model for ABCA1 induction in astrocytes.[81] […] Apparent inverse agonist activity in cell-based assays can result from true inverse agonist recruitment of corepressors or from antagonist activity towards endogenous sterol LXR agonists. Although we use serum stripped media, antagonism of endogenous LXR agonists cannot be ruled out.
Low passage CCF-STTG1 cells (20,000 cells/well) were seeded in 96-well plates in media containing charcoal-stripped FBS and incubated at 37 °C and 5% CO2 for 24 hours prior to a 24-hour treatment. All compounds were dissolved in DMSO, and final DMSO concentrations never exceeded 1%. After a 24-hour incubation period, add a volume of ONE-GLO™EX Reagent that is equal to the volume of culture medium in each well and incubate for 3 to 5 minutes on the shaker. The luminescent activity of compounds ([…], 10-fold dilution) was examined using the ONE-GLO™EX assay (Promega). The data was normalized to DMSO. The assays were performed in duplicates for each concentration, and the EC50 values were determined from non-linear regression analysis of the dose-response curve generated in GraphPad Prism 9.

LXRβ [5] = molecular target: T1, LXRβ
LXRα [6] = molecular target: T2, LXRα; assay: Corepressor (NCOR2, SMRT2) binding CRT, LXRα; conditions: absence of coactivator
NASH mouse model = conditions: cited from earlier work
LXR = assay: CRT signature categorization, heat map of response at 1 μM; format: biochemical; conditions: signatures of Table 1
Source text: With the knowledge that corepressors bind to the apo-receptor; whereas coactivator binding requires a ligand-induced conformational change, we can categorize all ligands using their CRT profiles: ligands induce 3 conformations with CoR (destabilizing D, stabilizing S, neutral N) and only 2 conformations with CoA (stabilizing S, neutral N) (Table 1).
To determine which LXR ligands fit with these theoretical CRT signatures, concentration-response curves were interpolated to measure normalized response at 1 μM ligand concentration and plotted as a heat map (Figs 9A, S8).
The CRT signatures of the three agonist and three antagonist classifications were modelled in the same heat map using signatures defined in Table 1 and the measured responses to the real LXR ligands in our study.

[7] = test system: SRE promoter luciferase (SRE-luc) in HepG2 cells; assay: SRE-luc reporter in HepG2 cells; format: cell-based, human; conditions: for SRE-luc response: HepG2, normalized to T0
Source text: Our phenotypic high throughput screen (HTS) approach to identify nonlipogenic ABCA1 Inducers (NLAI) originally used counterscreening with a SREBP1c-luciferase reporter (linked to the SREBF1 gene promoter) in human hepatocarcinoma HepG2 cells.[81] Unwanted lipogenesis is mediated by LXR agonists via direct transcriptional activation and indirectly by the effects of SREBP1c.[57] [109] SREBP1c enhances transcription of genes required for synthesis of fatty acids and TG and as the dominant isoform in liver is associated most closely with lipogenesis and TG elevation.[109] […] Binding of SREBP1c to the sterol response element (SRE) induces transcription of lipogenic genes associated with elevated TG. To better model the lipogenic axis in hepatocytes, we use HepG2 cells stably transfected with a luciferase reporter downstream of a SRE promoter (SRE-luc), activation of which requires SREBP1c maturation.
HepG2 cells were cotransfected with SRE (LDLR)-NlucP SuperPiggyBac Transposon and a separate Transposase plasmid (System Biosciences). Cells were expanded for multiple passages followed by selection with puromycin (1ug/ml). Stable cells constitutively express GFP allowed for FACS enrichment and/or cell cloning. Initially, stable pools were compared to low expressing and high expressing enriched pools. The optimal pool was selected based on assay performance (Z’) and was grown and maintained as above, with the addition of 1.0 μg/mL of puromycin biweekly.

[8] = cited from earlier work
obese mice on HFD = conditions: cited from earlier work
[9] = test system: mouse model of non-alcoholic steatohepatitis (NASH); conditions: cited from earlier work
LXRα [10] = molecular target: T2, LXRα
[11] = test system: high-fat diet (HFD) mouse model; conditions: cited from earlier work
primates = test system: primates; design: method as in PMID 19318684; conditions: 50 mg/kg/day p.o., returned to baseline at day 7; cited from earlier work
participants = test system: participants; design: method as in PMID 19398602; conditions: 300 mg dose; cited from earlier work
hamsters = test system: hamsters; design: method as in PMID 19318684; conditions: cited from earlier work
LXRβ [12] = molecular target: T1, LXRβ; assay: Multiplex precision CRT (pCRT), SRC1 and NCoR2, LXRβ; format: biochemical; design: NR-LBD with short coregulator peptides as used in the present work; purchased Thermo Fisher Scientific PV4660; conditions: SRC1-btn 200 nM, NCoR2-FL 200 nM
mice = conditions: highest dose 30 mg/kg qd; cited from earlier work
E3/4FAD mice = conditions: cited from earlier work

## Cc1cc(C)c(S(=O)(=O)N(Cc2ccc(-c3cccc(S(C)(=O)=O)c3)cc2)Cc2ccc(C(F)(F)F)o2)c(C)c1 [GSK2033]
LXRβ [1]
  SMRT2 binding to LXRβ, ligand effect: selectively displace SMRT2 from LXRβ
[2]
  Lipogenic gene transcription (SREBF1, FAS, SCD1) by RT-PCR: reducing lipogenic gene transcription below baseline
LXRα [3]
  Effect on 24HC agonism at LXRα: without effect on LXRα
  SRC-1 recruitment to LXRα, efficacy relative to T0: neither ligand stabilized the LXR:SRC1 complex alone
[4]
  ABCA1-luc response: inverse agonist activity in cells; also recorded: mixed antagonist/inverse agonist phenotype
LXRβ [5]
  Effect on 24HC agonism at LXRβ: antagonized the agonism of 24HC at LXRβ
  SRC-1 recruitment to LXRβ, efficacy/potency relative to T0: neither ligand stabilized the LXR:SRC1 complex alone
LXRα [6]
  Corepressor (NCOR2 and SMRT2) binding to LXRα, ligand effect: does not stabilize a conformation that disrupts corepressor binding to LXRα
NASH mouse model
  Expression of lipogenic genes, including FAS and SREBP1c: increased rather than suppressed
LXR
  CRT signature category: HA (hard antagonist (HA))
[7]
  SRE-luc response: neutral or antagonist response; also recorded: mixed antagonist/inverse agonist phenotype

## CCOC(=O)c1ccc(CN(Cc2ccc(-c3cccc(S(C)(=O)=O)c3)cc2)S(=O)(=O)c2c(C)cc(C)cc2C)o1 [SR9238]
LXRβ [1]; absence of coactivator
  Corepressor (NCOR2 and SMRT2) binding to LXRβ, ligand effect: strong agonist responses
[2]
  Lipogenic gene transcription (SREBF1, FAS, SCD1) by RT-PCR: reducing lipogenic gene transcription below baseline
LXRα [3]
  Effect on 24HC agonism at LXRα: without effect on LXRα
  SRC-1 recruitment to LXRα, efficacy relative to T0: neither ligand stabilized the LXR:SRC1 complex alone
[4]
  ABCA1-luc response: inverse agonist activity in cells
LXRβ [5]; in the presence of 24HC (3 μM)
  Effect on 24HC agonism at LXRβ: antagonized the agonism of 24HC at LXRβ
LXRβ [5]; ligand alone, normalized to T0 (100%)
  SRC-1 recruitment to LXRβ, efficacy/potency relative to T0: neither ligand stabilized the LXR:SRC1 complex alone
[8]
  Metabolic lability / systemic availability: metabolically labile
LXRα [6]
  Corepressor (NCOR2 and SMRT2) binding to LXRα, ligand effect: strong agonist responses
LXR
  CRT signature category: IA (inverse agonist (IA))
[7]
  SRE-luc response: anomalous activation of SRE at concentrations above 1 μM; also recorded: lowered SRE activation below baseline; also recorded: neutral or antagonist response; also recorded: inverse agonist at < 3 μM concentration
Obese mice on HFD
  Plasma TG: plasma TG was suppressed
[9]
  Hepatic inflammation and fibrosis: significantly reduced hepatic inflammation and fibrosis

## CCOC(=O)c1cccc(NC(=O)c2sc(Cl)cc2S(=O)(=O)N(C)c2ccc(OCC)c(OCC)c2)c1 [CL2–57]
LXRα [10]
  Recruitment of coactivator TRAP220 to LXRα: very minimal recruitment
[11]
  Plasma and hepatic TG levels: attenuated diet-induced increases in plasma and hepatic TG levels
[7]; Homo sapiens, HepG2 SRE-luc, read-out: EC50, SRE activation
  pEC50: 5.55

## Fc1ccc(-c2c3cccc(C(F)(F)F)c3nn2Cc2ccc(F)cc2Cl)cc1 [LXR-623]
primates
  Liver TG: significant increase in liver TG was observed but only at high dose
participants
  Adverse effects: all 6 participants on the highest 300 mg dose reported neurologic or psychiatric adverse effects
hamsters
  Plasma TG: did not cause a dose-dependent increase in plasma TG

## CC(C)(O)c1cn(-c2ccc(-c3cccc(S(C)(=O)=O)c3)cc2)c(C(C)(C)c2ccccc2Cl)n1 [XL652]
LXRβ [1]; absence of coactivator
  NCOR2 binding to LXRβ, ligand effect: weakly destabilized the NCOR2 complex with both LXR isoforms
  SMRT2 binding to LXRβ, ligand effect: did not perturb SMRT2 binding to LXRβ
LXRα [10]
  Recruitment of coactivator TRAP220 to LXRα: very minimal recruitment
[4]; versus XL041
  Weaker potency for ABCA1 induction compared to XL041: more than 100 fold
LXRβ [12]
  NCOR2 displacement from LXRβ in the presence of SRC1 (pCRT): fully displaced
LXRα [6]
  Corepressor (NCOR2 and SMRT2) binding to LXRα, ligand effect: strongly stabilized the corepressor-bound conformation
  SMRT2 binding to LXRα, ligand effect: stabilization of SMRT2 corepressor binding to LXRα
mice
  Plasma triglycerides: elevated plasma triglycerides only at the highest dose
[7]
  SRE-luc response: anomalous activation of SRE at concentrations above 1 μM; also recorded: little or no activation of SRE at submicromolar concentrations
[7]; concentrations ≤ 1 μM
  Efficacy of SRE activation: 20–25 % of T0

## CCOC(=O)c1cc(Cl)cc(NC(=O)c2sc(Cl)cc2S(=O)(=O)N(C)c2ccc(OCC)c(OC)c2)c1 [CL3–3]
LXRα [10]
  Recruitment of coactivator TRAP220 to LXRα: very minimal recruitment
LXRα [3]
  SRC-1 recruitment to LXRα, efficacy relative to T0: partial agonist activity at LXRα
E3/4FAD mice
  ABCA1 expression, APOE lipidation, AD phenotypes, TG: increased ABCA1 expression, enhanced APOE lipidation and reversed multiple AD phenotypes, without increasing TG
